# Test system: 3T3-L1 cells
# Assay: Lipid accumulation evaluation, Oil red O staining of MDI-differentiated adipocytes
# Type: cell-based
# Settings: 5 mM; DMSO-only sample = 100%; absorbance at 500 nm
# Description: For induction of 3T3-L1 cells into adipocytes, the cells were treated with MDI (5 μg/ml insulin, 0.5 mM IBMX, and 1.0 μM dexamethasone) in DMEM containing 10% FBS and 1% penicillin-streptomycin, followed by induction of differentiation for 2 days. The differentiated 3T3-L1 cells were washed with physiological buffered saline (PBS), and then fixed with 10% formalin for 1 hour. The fixed cells were washed twice with ddH2O, treated with 60% isopropanol for 5 minutes, and then stained with Oil red O solution (dissolved in 60% isopropanol) for 10 minutes. After staining, the cells were washed four times with ddH2O, and de-stained with 100% isopropanol for 10 minutes, and then the cells were observed using a microscope and measured for absorbance at 500 nm.
# The result of the sample treated with only DMSO used as a solvent was converted to 100%, and quantitatively measured for lipids.
structure (smiles),measurement,value
CC(=O)N[C@@H](CS)C(=O)O [n-acetyl cysteine],lipid accumulation,20.6±3.7%

# Reference: patent US11291704B2, “Composition for preventing or treating obesity containing ethanolic extract of Ramulus mori” (Korea University Research and Business Foundation, priority 2016, dated 2022)
